The subject of one data set is B16F10 cells. Nature of the data set: Tolerability and tumor growth inhibition in B16F10-bearing mice (Example 21). Type of data set: in vivo, mouse (C57/BL6). From the text: On day 0 of the experiment, female C57/BL6 mice were subcutaneously implanted in the upper thigh with approximately 500,000 B16F10 cells, which had been freshly thawed from a single, low-passage vial (of 1*10^7 cells) and cultured for the minimum time required to establish sufficient cells for implantation.
On day 5 of the experiment, mice were randomized into groups to receive one of the molecules listed above or control. […] Tumor volumes, body weight, and animal survival were tracked throughout the course of the experiment. Animals were sacrificed once tumors reached approximately 2000 mm^3 or 2 weeks post treatment.

The subject of data set [1] is Treg cells. Kind of data set: In vivo expansion of Treg cells (spleen immunophenotyping). Further details: species or system mice. Particulars: 0.5, 1, or 2 mg/kg daily for 4 days SC; spleens day 3. How it is done: (§1) Mice were randomized into groups to receive one of the molecules listed above or PBS control. The treatment groups were as follows: PBS; Fc-IL2; Fc-IL2v; […]; Immunophenotyping was conducted on day 3 after the first treatment (day 0) by collecting spleens from each group.

In data set [2] the test system is Treg cells. Nature of the data set: pSTAT5 flow cytometry in hPBMCs: Treg cells. Type of data set: cell-based, human. Particulars: pSTAT5 MFI in hPBMCs, 20 minutes at 37° C.; read-out: EC50 Treg cell. The protocol: (§2) In this experiment, the ability of the IL-2 variants to activate CD8 T cells, NK cells, and Treg cells was measured by monitoring relative changes in pSTAT5 in response to treatment of the cells with the IL-2 variants. The IL-2 variants tested in this experiment were each fused to a human IgG Fc domain as described in Example 15. […]; Blood from healthy volunteers was taken and hPBMCs were isolated using a ficoll-paque (GE Healthcare) gradient, washed with PBS to remove platelets, and cleared of red blood cells using ACK lysis buffer (Gibco). Cells were then plated at 1*10e6 cells/well in 90 uL serum-free RPMI 1640 media (Gibco) and allowed to rest for 2-4 hours at 37° C. After resting, cells were treated the IL-2 molecules listed above (10 uL), at the indicated concentrations for 20 minutes at 37° C., and 25 uL 20% PFA was immediately added with gentle pipetting. Cells were then pelleted by centrifugation and aspirated (400 RCF, 7 minutes).
(§3) Phosflow Perm Buffer III (BD Biosciences) was added (200 uL), and the cells were mixed gently by pipetting up and down once to prevent clumping. Cells were then washed twice with 200 uL FACS buffer followed by pelleting by centrifugation (400 RCF, 7 minutes). Cells were in resuspended in 200 uL FACS buffer and incubated with the antibodies in Table D and Table E per standard procedure then suspended in 200 uL FACS buffer for FACS analysis. Data was analyzed using FlowJo v10 software.
On the technique in general: Flow cytometry measures light scatter and fluorescence of single cells or particles in a stream.

For data set [3], the system named is NK cells. Kind of data set: pSTAT5 flow cytometry in hPBMCs: NK cells. Type of data set: cell-based, human. How it is done:
as §2, §3

Data set [4] has as its system CD8 T cells. Kind of data set: In vivo expansion of CD8 T cells (spleen immunophenotyping). More on the design: species or system mice. The conditions noted are these: 0.5, 1, or 2 mg/kg daily for 4 days SC; spleens day 3. How it is done: as §1
Data set [5] has as its system NK cells. Kind of data set: In vivo expansion of NK cells (spleen immunophenotyping). Further details: species or system mice. Particulars: 0.5, 1, or 2 mg/kg daily for 4 days SC; spleens day 3. The protocol: as §1
In data set [6] the test system is iTreg cells (IL-2 CD25/CD122/CD132 (α/β/γ) receptor complex). Nature of the data set: pSTAT5 ELISA in iTreg cells. Type of data set: cell-based. The conditions noted are these: pSTAT5 level 50% of maximum, InstantOne ELISA; read-out: EC50 iTreg cell. The protocol:
(§4) The ability of the IL-2 variants to activate HH cells and iTregs was measured by monitoring relative changes in phosphorylated STAT5 (pSTAT5) in response to treatment of the cells with the IL-2 variants. pSTAT5 is known to be a downstream consequence of IL-2 signaling. HH T cells (ATCC CRL-2105) are a line of T cells that lack the alpha chain of the IL-2 receptor complex, but that contain the beta and gamma chains of the IL-2 receptor complex. iTreg cells were prepared from Fresh Leuko Paks obtained from […] Technologies (CAT #70500.1, Donor #D001003551).
(§5) For IL-2 activation, the HH cells and iTreg cells were plated at 2*10e6 cells/well in 50 ul serum-free RPMI 1640 media (Gibco), and allowed to rest at 37° C. After resting, cells were treated the IL-2 molecules listed above, and cells were then pelleted by centrifugation.
(§6) Following treatment with the IL-2 molecules, cell induction status was evaluated by the InstantOne ELISA pSTAT5 detection kit (Invitrogen).
In general terms: An ELISA detects its analyte on a solid surface through an enzyme-linked reagent.

The test system of data set [7] is HH cells (IL-2 CD122/CD132 (β/γ) receptor complex). Kind of data set: pSTAT5 ELISA in HH cells. It counts as cell-based. How it is done:
as §4, §5, §6

The test system of data set [8] is CD8 T cells. Nature of the data set: pSTAT5 flow cytometry in hPBMCs: CD8 T cells. It counts as cell-based, human. The protocol: as §2, §3
The target of data set [9] is T1, mouse intermediate-affinity IL-2R (IL-2Rβ + IL-2Rγ) on murine splenocytes (CD8+ T cells and NK cells) (mouse) (UniProt P16297).
T1 sequence 1: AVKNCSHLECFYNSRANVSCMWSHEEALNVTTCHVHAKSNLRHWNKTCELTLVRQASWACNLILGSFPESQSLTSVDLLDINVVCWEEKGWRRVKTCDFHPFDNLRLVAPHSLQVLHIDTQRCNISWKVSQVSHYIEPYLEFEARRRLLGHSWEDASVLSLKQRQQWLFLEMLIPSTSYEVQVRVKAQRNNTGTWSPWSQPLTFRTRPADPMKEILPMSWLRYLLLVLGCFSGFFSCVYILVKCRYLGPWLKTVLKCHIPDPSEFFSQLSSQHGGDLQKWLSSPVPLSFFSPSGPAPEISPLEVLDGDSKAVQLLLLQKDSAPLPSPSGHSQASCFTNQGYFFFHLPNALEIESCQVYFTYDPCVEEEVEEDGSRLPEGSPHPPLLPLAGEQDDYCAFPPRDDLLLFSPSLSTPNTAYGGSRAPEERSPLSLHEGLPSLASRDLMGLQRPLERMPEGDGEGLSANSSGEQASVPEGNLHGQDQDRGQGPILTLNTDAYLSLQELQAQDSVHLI
T1 sequence 2: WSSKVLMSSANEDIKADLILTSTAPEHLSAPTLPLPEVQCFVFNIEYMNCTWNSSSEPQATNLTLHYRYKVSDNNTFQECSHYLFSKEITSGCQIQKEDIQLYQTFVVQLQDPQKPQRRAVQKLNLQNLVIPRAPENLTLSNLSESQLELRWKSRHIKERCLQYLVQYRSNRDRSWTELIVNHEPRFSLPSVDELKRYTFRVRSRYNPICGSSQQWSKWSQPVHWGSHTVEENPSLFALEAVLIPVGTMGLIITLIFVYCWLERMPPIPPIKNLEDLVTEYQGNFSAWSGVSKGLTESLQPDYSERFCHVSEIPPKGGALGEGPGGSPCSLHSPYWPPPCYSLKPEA

For the substance Fc-IL2-K43N:Y45T, in the data set on B16F10 cells (1 mg/kg SC on days 5, 6, 7, 8, groups of 15, day 12 post first treatment), the surviving mice was 7/15. Moreover, the “tolerability in mice compared with Fc-IL2 and Fc-IL2v” value in the data set with B16F10 cells (1 mg/kg SC on days 5-8) is “better tolerated”. The “proliferation of Treg cells in vivo” value in the data set with Treg cells [1] is listed as “modest increase in Treg proliferation”. Moreover, the EC50 in the data set on Treg cells [2] stood at 24.2 nM; with NK cells [3] (pSTAT5 MFI in hPBMCs, 20 minutes at 37° C., read-out: EC50 NK cell), 6.37 nM; in data set [6], 0.64 nM; in data set [7] (pSTAT5 level 50% of maximum, InstantOne ELISA, read-out: EC50 HH T cell) it was 166 nM; in the data set on CD8 T cells [8] (pSTAT5 MFI in hPBMCs, 20 minutes at 37° C., read-out: EC50 CD8 T cell) it was 57.6 nM. Also, the “Selectivity NK/Treg” value in the data set with NK cells [3] (larger numbers = greater selectivity for NK cells over Treg cells) was found to be 3.8. Further, the “expansion of CD8 T cells in vivo” value with CD8 T cells [4] is given as “promoted the expansion”. Besides, the “expansion of NK cells in vivo” value with NK cells [5] is on record as “promoted the expansion”. The “Selectivity HH/iTreg” value in data set [7] (higher value = greater selectivity for HH cells) is reported as 3.86 × 10^−3. Moreover, in the data set on CD8 T cells [8] (larger numbers = greater selectivity for CD8 T cells over Treg cells), the “Selectivity CD8/Treg” value is recorded as 0.42.
Take “human IL-2 glycovariant hIL-2gv1 (R38N, L40T, K43N, Y45T), secreted by virus-infected HeLa cells (from UniProt P60568 21-153) (ligand)”: the EC50 (read off the curve), pSTAT5 MFI, murine splenocyte NK cells in [9] was 20 ng/mL.
As for “human IL-2 glycovariant 2 hIL-2gv2 (K43N, Y45T, L72N, Q74T), secreted by virus-infected HeLa cells (from UniProt P60568 21-153) (ligand)”, the EC50 (read off the curve), pSTAT5 MFI, murine splenocyte NK cells in data set [9] was 20 ng/mL.

Usually EC50 stands for the concentration that produces a half-maximal response.
